In US20240246937A1 (MERCK SHARP & DOHME LLC, priority 2021, published 2024):

Target: recombinant IL4I1 (Homo sapiens (Human), UniProt Q96RQ9)
Assay: IL4I1 Enzymatic Assay (Amplex Red/HRP coupled fluorescence detection of H2O2)
Assay type: biochemical
Conditions: 240 min; recombinant IL4I1, four-hour pre-incubation with compound
Protocol: Interleukin 4 inducible protein 1 (IL4I1) is an L-amino oxidase that catalyzes the oxidation of aromatic residues (Phe, Trp and Tyr): L-amino acid+H2O+O2→2-oxo acid+NH3+H2O2. Equal molar of H2O2 and the corresponding alpha-ketoacid are produced when IL4I1 and substrate are added. In this assay, the hydrogen peroxide generated by IL4I1 is then detected through a coupled reaction with Amplex® Red (10-acetyl-3,7-dihydroxyphenoxazine) and horseradish peroxidase (HRP) to produce resorufin product that could be detected in the form of fluorescence signals. The assessment of the inhibitory effect of small molecules (EC50) on IL4I1 is measured by the effectiveness of the compounds to inhibit the production of H2O2.
Using this assay, the potency (EC50) of each compound was determined from a ten-point (1:3 serial dilution) titration curve using the following outlined procedure. To each well of a black flat-bottom Greiner (Cat #781076) 384 well-plate, 25 nL of compound (0.1% DMSO in final assay volume of 25 μL) was dispensed, followed by the addition of 12.5 μL of 1× assay buffer (50 mM Hepes 7.0 and 0.005% Tween20 (Sigma, Cat #P8341; low peroxide grade)) containing 2 nM of recombinant IL4I1 (R&D Systems, Cat #5684-AO-020). Plates were placed in an ambient temperature humidified chamber for a four-hour pre-incubation with compound. Subsequently, each reaction was initiated by the addition of 12.5 μL 1× assay buffer containing 2 mM of each aromatic amino acids (Phe/Tyr/Trp), 0.1 mM Amplex Red and 2 U/mL of HRP. The final reaction in each well of 25 μL consisted of 1 nM of IL4I1, 1 mM of each residues (Phe, Tyr and Trp), 0.05 mM Amplex Red and 1 U/mL of HRP. It should be noted that the concentrations of Amplex Red and HRP used here were in excess such that the conversion of H2O2 to resorufin product occurred instantaneously and was non-rate limiting. Reactions were allowed to proceed for 120 minutes followed by fluorescence readout on a Spectramax with the following set parameters: 544 nm excitation/590 nm emission, 570 nm cutoff (EnVision is an alternative reader). Dose-response curves were generated by plotting percent effect (% product conversion; Y-axis) vs. Log10 compound concentrations (X-axis). EC50 values were calculated using a non-linear regression, four-parameters sigmoidal dose-response model and are shown in Potency Table 1.

Chain of recombinant IL4I1 (Q96RQ9 22-567): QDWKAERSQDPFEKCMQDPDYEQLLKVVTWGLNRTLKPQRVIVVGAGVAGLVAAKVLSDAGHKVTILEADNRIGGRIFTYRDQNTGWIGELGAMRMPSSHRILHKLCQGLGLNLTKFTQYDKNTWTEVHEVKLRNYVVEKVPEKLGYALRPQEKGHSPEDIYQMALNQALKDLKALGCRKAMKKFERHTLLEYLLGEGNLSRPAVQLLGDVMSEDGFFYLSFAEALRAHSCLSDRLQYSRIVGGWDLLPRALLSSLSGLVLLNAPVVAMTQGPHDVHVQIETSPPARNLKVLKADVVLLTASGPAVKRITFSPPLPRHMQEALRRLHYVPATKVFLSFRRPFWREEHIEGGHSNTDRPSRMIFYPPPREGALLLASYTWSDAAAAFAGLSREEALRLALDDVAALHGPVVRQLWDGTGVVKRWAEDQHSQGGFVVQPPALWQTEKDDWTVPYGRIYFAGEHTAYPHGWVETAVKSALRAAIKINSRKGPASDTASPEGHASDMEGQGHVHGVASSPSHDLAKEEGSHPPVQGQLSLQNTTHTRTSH

Row | Compound | EC50
1 | O=C1C(=O)N(C2CCCC2)CCN1Cc1ccc(-c2ccccc2)cn1 [Example 98, 1-cyclopentyl-4-((5-phenylpyridin-2-yl)methyl)piperazine-2,3-dione] | 12 nM
2 | O=C1NCCc2ccc(CN3CCN(C4CCCC4)C(=O)C3=O)cc21 [Example 275, 1-cyclopentyl-4-((1-oxo-1,2,3,4-tetrahydroisoquinolin-7-yl)methyl)piperazine-2,3-dione] | 20 nM
3 | N#Cc1ccccc1-c1cc(CN2CCN(C34CC(C3)C4)C(=O)C2=O)no1 [Example 424, 2-(3-((4-(bicyclo[1.1.1]pentan-1-yl)-2,3-dioxopiperazin-1-yl)methyl)isoxazol-5-yl)benzonitrile] | 19 nM
4 | O=C1C(=O)N(C2CCC2)CCN1Cc1nnc(-c2ccccc2)s1 [Example 135, 1-cyclobutyl-4-((5-phenyl-1,3,4-thiadiazol-2-yl)methyl)piperazine-2,3-dione] | 6 nM
5 | O=C1C(=O)N(C2CCCC2)CCN1Cc1nnc(-c2nccs2)s1 [Example 363, 1-cyclopentyl-4-((5-(thiazol-2-yl)-1,3,4-thiadiazol-2-yl)methyl)piperazine-2,3-dione] | 25 nM
6 | CC(CF)N1CCN(Cc2ncc(-c3ccccc3)cn2)C(=O)C1=O (stereo not drawn) [Example 288, 1-(1-fluoropropan-2-yl)-4-((5-phenylpyrimidin-2-yl)methyl)piperazine-2,3-dione] | 37 nM
7 | O=c1c(=O)n([C@H]2C[C@@H](c3ccccc3)C2)ccn1Cc1nnc(-c2ccccc2)s1 [Example 48, 1-((5-phenyl-1,3,4-thiadiazol-2-yl)methyl)-4-((cis)-3-phenylcyclobutyl)-1,4-dihydropyrazine-2,3-dione] | 2 nM
8 | O=C1C(=O)N(C2CCC2)CCN1Cc1ccc(-c2cccc(F)c2)nn1 [Example 20, 1-cyclobutyl-4-((6-(3-fluorophenyl)pyridazin-3-yl)methyl)piperazine-2,3-dione] | 5 nM
9 | COc1ccc(C2(N3CCN(Cc4nnc(-c5ccccc5)s4)C(=O)C3=O)CC2)nc1 [Example 297, 1-(1-(5-methoxypyridin-2-yl)cyclopropyl)-4-((5-phenyl-1,3,4-thiadiazol-2-yl)methyl)piperazine-2,3-dione] | 83 nM
10 | O=c1c(=O)n(C2CCC2)ccn1Cc1cc(-c2ccccc2)sn1 [Example 173, 1-cyclobutyl-4-((5-phenylisothiazol-3-yl)methyl)-1,4-dihydropyrazine-2,3-dione] | 14 nM
11 | O=c1c(=O)n(C2CCCC2)ccn1Cc1cc(-c2ccc(F)cc2)no1 [Example 164, 1-cyclopentyl-4-((3-(4-fluorophenyl)isoxazol-5-yl)methyl)-1,4-dihydropyrazine-2,3-dione] | 1 nM
12 | O=C1C(=O)N(C2CCCC2)CCN1Cc1ccc(N2CCCCC2)nn1 [Example 316, 1-cyclopentyl-4-((6-(piperidin-1-yl)pyridazin-3-yl)methyl)piperazine-2,3-dione] | 32 nM
13 | O=C1C(=O)N(C2CCC2)CCN1Cc1cnc(-c2ccccc2)cn1 [Example 118, 1-cyclobutyl-4-((5-phenylpyrazin-2-yl)methyl)piperazine-2,3-dione] | 7 nM
14 | O=C1C(=O)N(C2CCCC2)CCN1Cc1nnc(N2CCCCC2)s1 [Example 309, 1-cyclopentyl-4-((5-(piperidin-1-yl)-1,3,4-thiadiazol-2-yl)methyl)piperazine-2,3-dione] | 41 nM
15 | O=C1C(=O)N(C23CC(C2)C3)CCN1Cc1cc(-c2cccc(F)c2)on1 [Example 76, 1-(bicyclo[1.1.1]pentan-1-yl)-4-((5-(3-fluorophenyl)isoxazol-3-yl)methyl)piperazine-2,3-dione] | 4 nM
16 | O=c1c(=O)n(C23CC(C2)C3)ccn1Cc1nnc(-c2ccccc2)s1 [Example 120, 1-(bicyclo[1.1.1]pentan-1-yl)-4-((5-phenyl-1,3,4-thiadiazol-2-yl)methyl)-1,4-dihydropyrazine-2,3-dione] | 3 nM
17 | O=C1C(=O)N(C23CC(C2)C3)CCN1Cc1nnc(-c2ccc(F)cc2)s1 [Example 32, 1-(bicyclo[1.1.1]pentan-1-yl)-4-((5-(4-fluorophenyl)-1,3,4-thiadiazol-2-yl)methyl)piperazine-2,3-dione] | 5 nM
18 | O=C1C(=O)N(C2CCCC2)CCN1Cc1ncc(-c2nccs2)cn1 [Example 361, 1-cyclopentyl-4-((5-(thiazol-2-yl)pyrimidin-2-yl)methyl)piperazine-2,3-dione] | 96 nM
19 | O=C1C(=O)N(C23CC(F)(C2)C3)CCN1Cc1cc(-c2cccnc2)on1 [Example 256, 1-(3-fluorobicyclo[1.1.1]pentan-1-yl)-4-((5-(pyridin-3-yl)isoxazol-3-yl)methyl)piperazine-2,3-dione] | 533 nM
20 | O=C1C(=O)N(C2CCCC2)CCN1Cc1ccc2cc[nH]c(=O)c2c1 [Example 272, 1-cyclopentyl-4-((1-oxo-1,2-dihydroisoquinolin-7-yl)methyl)piperazine-2,3-dione] | 35 nM
21 | C[C@@H](c1nnc(-c2ccccc2)s1)N1CCN(C2CCCC2)C(=O)C1=O [Example 349, (S)-1-cyclopentyl-4-(1-(5-phenyl-1,3,4-thiadiazol-2-yl)ethyl)piperazine-2,3-dione] | 25 nM

The next lines start with the values.

Row | EC50 | Compound
22 | 8 nM | O=c1c(=O)n([C@H]2C[C@H]3C[C@H]3C2)ccn1Cc1ccc(-n2nccn2)cn1 [Example 408, 1-((5-(2H-1,2,3-triazol-2-yl)pyridin-2-yl)methyl)-4-((cis)-bicyclo[3.1.0]hexan-3-yl)-1,4-dihydropyrazine-2,3-dione]
23 | 3 nM | O=c1c(=O)n(C23CC(C2)C3)ccn1Cc1cc(-c2ccccc2F)on1 [Example 77, 1-(bicyclo[1.1.1]pentan-1-yl)-4-((5-(2-fluorophenyl)isoxazol-3-yl)methyl)-1,4-dihydropyrazine-2,3-dione]
24 | 14 nM | CC1(n2ccn(Cc3cc(-c4cccnc4)no3)c(=O)c2=O)CC1 [Example 221, 1-(1-methylcyclopropyl)-4-((3-(pyridin-3-yl)isoxazol-5-yl)methyl)-1,4-dihydropyrazine-2,3-dione]
25 | 44 nM | O=c1c(=O)n(C2(CF)CC2)ccn1Cc1ccc(-n2ccnn2)nn1 [Example 247, 1-((6-(1H-1,2,3-triazol-1-yl)pyridazin-3-yl)methyl)-4-(1-(fluoromethyl)cyclopropyl)-1,4-dihydropyrazine-2,3-dione]
26 | 16 nM | O=c1c(=O)n(C23CC(C2)C3)ccn1Cc1ccc(-c2cncs2)nn1 [Example 95, 1-(bicyclo[1.1.1]pentan-1-yl)-4-((6-(thiazol-5-yl)pyridazin-3-yl)methyl)-1,4-dihydropyrazine-2,3-dione]
27 | 16 nM | O=c1c(=O)n(C23CC(C2)C3)ccn1Cc1ccc(-n2nccn2)cn1 [Example 360, 1-((5-(2H-1,2,3-triazol-2-yl)pyridin-2-yl)methyl)-4-(bicyclo[1.1.1]pentan-1-yl)-1,4-dihydropyrazine-2,3-dione]
28 | 10 nM | O=c1c(=O)n(C23CC(C2)C3)ccn1Cc1cc(-c2cccnc2)on1 [Example 212, 1-(bicyclo[1.1.1]pentan-1-yl)-4-((5-(pyridin-3-yl)isoxazol-3-yl)methyl)-1,4-dihydropyrazine-2,3-dione]
29 | 60 nM | O=c1c(=O)n(C2(CF)CC2)ccn1Cc1ccc(-n2nccn2)cn1 [Example 216, 1-((5-(2H-1,2,3-triazol-2-yl)pyridin-2-yl)methyl)-4-(1-(fluoromethyl)cyclopropyl)-1,4-dihydropyrazine-2,3-dione]
30 | 225 nM | N#CC1(n2ccn(Cc3ccc(-n4cccn4)cn3)c(=O)c2=O)CC1 [Example 386, 1-(4-((5-(1H-pyrazol-1-yl)pyridin-2-yl)methyl)-2,3-dioxo-3,4-dihydropyrazin-1(2H)-yl)cyclopropane-1-carbonitrile]
31 | 69 nM | O=c1c(=O)n(C2(CF)CC2)ccn1Cc1ccc(-c2cccnc2)nn1 [Example 227, 1-(1-(fluoromethyl)cyclopropyl)-4-((6-(pyridin-3-yl)pyridazin-3-yl)methyl)-1,4-dihydropyrazine-2,3-dione]
32 | 66 nM | N#CC1(n2ccn(Cc3ccc(-n4nccn4)cn3)c(=O)c2=O)CC1 [Example 413, 1-(4-((5-(2H-1,2,3-triazol-2-yl)pyridin-2-yl)methyl)-2,3-dioxo-3,4-dihydropyrazin-1(2H)-yl)cyclopropane-1-carbonitrile]
33 | 44 nM | CC1(n2ccn(Cc3ccc(-n4nccn4)cn3)c(=O)c2=O)CC1 [Example 202, 1-((5-(2H-1,2,3-triazol-2-yl)pyridin-2-yl)methyl)-4-(1-methylcyclopropyl)-1,4-dihydropyrazine-2,3-dione]
